# Reference: patent publication US20230123334A1, “AMINO LIPID COMPOUND, PREPARATION METHOD THEREFOR, AND APPLICATION THEREOF” (SHENZHEN SHENXIN BIOTECHNOLOGY CO., LTD., priority 2020, published 2023)
# Test system: HEK293 cells
# Experiment: Preliminary screening as mRNA vectors, EGFP mRNA transfection of HEK293 cells
# Type: cell-based
# Conditions: EGFP mRNA 50 ng per well, 96-well plates; percentage of GFP fluorescent cells relative to total number of cells (Hoechst)
# Procedure, shortened: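 HEK293 cells in DMEM plus 10% FBS transfected in 96-well format with 50 ng EGFP mRNA per well; Lipofectamine2000 served as positive control. Read-out is the percentage of GFP-fluorescent cells among total cells, counted by Hoechst nuclear stain.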
row,Structure (SMILES),Absolute mRNA transfection efficiency in HEK293 cells [%]
1,CCCCCCCCCCCCSc1nc(NCCN2CCCCC2)nc(N(CCCCCCCCCCCC)CCCCCCCCCCCC)n1 [D4S12^2N12],0.5
2,CCCCCCCCCCCCCCSc1nc(NCCN2CCCCC2)nc(N(CCCCCCCCCCCC)CCCCCCCCCCCC)n1 [D4S14^2N12],0.2
3,CCCCCCCCCCCCCCCSc1nc(NCCN2CCCCC2)nc(N(CCCCCCCCCCCC)CCCCCCCCCCCC)n1 [D4S15^2N12],0.2
4,CCCCCCCCCCCCCCCCSc1nc(NCCN2CCCCC2)nc(N(CCCCCCCCCCCC)CCCCCCCCCCCC)n1 [D4S16^2N12],0.3
5,CCCCCCCCCCCCCCCCCCSc1nc(NCCN2CCCCC2)nc(N(CCCCCCCCCCCC)CCCCCCCCCCCC)n1 [D4S18^2N12],0.3
6,CCCCCCCCCCCCN(CCCCCCCCCCCC)c1nc(NCCN2CCN(C)CC2)nc(SCCCCCC)n1 [D5S6^2N12],0.3
7,CCCCCCCCCCCCN(CCCCCCCCCCCC)c1nc(NCCN2CCN(C)CC2)nc(SCCCCCCC)n1 [D5S7^2N12],0.2
8,CCCCCCCCCCCCN(CCCCCCCCCCCC)c1nc(NCCN2CCN(C)CC2)nc(SCCCCCCCC)n1 [D5S8^2N12],0.9
9,CCCCCCCCCCCCN(CCCCCCCCCCCC)c1nc(NCCN2CCN(C)CC2)nc(SCCCCCCCCC)n1 [D5S9^2N12],0.4
10,CCCCCCCCCCCCN(CCCCCCCCCCCC)c1nc(NCCN2CCN(C)CC2)nc(SCCCCCCCCCC)n1 [D5S10^2N12],0.1
11,CCCCCCCCCCCCN(CCCCCCCCCCCC)c1nc(NCCN2CCN(C)CC2)nc(SCCCCCCCCCCC)n1 [D5S11^2N12],0.6
12,CCCCCCCCCCCCSc1nc(NCCN2CCN(C)CC2)nc(N(CCCCCCCCCCCC)CCCCCCCCCCCC)n1 [D5S12^2N12],1.6
13,CCCCCCCCCCCCCCSc1nc(NCCN2CCN(C)CC2)nc(N(CCCCCCCCCCCC)CCCCCCCCCCCC)n1 [D5S14^2N12],0.9
14,CCCCCCCCCCCCCCCSc1nc(NCCN2CCN(C)CC2)nc(N(CCCCCCCCCCCC)CCCCCCCCCCCC)n1 [D5S15^2N12],0.9
15,CCCCCCCCCCCCCCCCSc1nc(NCCN2CCN(C)CC2)nc(N(CCCCCCCCCCCC)CCCCCCCCCCCC)n1 [D5S16^2N12],0.1
16,CCCCCCCCCCCCCCCCCCSc1nc(NCCN2CCN(C)CC2)nc(N(CCCCCCCCCCCC)CCCCCCCCCCCC)n1 [D5S18^2N12],0.0
17,CCCCCCCCCCCCN(CCCCCCCCCCCC)c1nc(NCCCN(C)C)nc(SCCCCCC)n1 [D6S6^2N12],0.0
18,CCCCCCCCCCCCN(CCCCCCCCCCCC)c1nc(NCCCN(C)C)nc(SCCCCCCC)n1 [D6S7^2N12],0.9
19,CCCCCCCCCCCCN(CCCCCCCCCCCC)c1nc(NCCCN(C)C)nc(SCCCCCCCC)n1 [D6S8^2N12],1.5
20,CCCCCCCCCCCCN(CCCCCCCCCCCC)c1nc(NCCCN(C)C)nc(SCCCCCCCCC)n1 [D6S9^2N12],1.7
21,CCCCCCCCCCCCN(CCCCCCCCCCCC)c1nc(NCCCN(C)C)nc(SCCCCCCCCCC)n1 [D6S10^2N12],0.1

row,Structure (SMILES),Absolute mRNA transfection efficiency in HEK293 cells [%]
1,CCCCCCCCCCCCN(CCCCCCCCCCCC)c1nc(NCCCN(C)C)nc(SCCCCCCCCCCC)n1 [D6S11^2N12],3.2
2,CCCCCCCCCCCCSc1nc(NCCCN(C)C)nc(N(CCCCCCCCCCCC)CCCCCCCCCCCC)n1 [D6S12^2N12],2.4
3,CCCCCCCCCCCCCCSc1nc(NCCCN(C)C)nc(N(CCCCCCCCCCCC)CCCCCCCCCCCC)n1 [D6S14^2N12],0.1
4,CCCCCCCCCCCCCCCSc1nc(NCCCN(C)C)nc(N(CCCCCCCCCCCC)CCCCCCCCCCCC)n1 [D6S15^2N12],2.9
5,CCCCCCCCCCCCCCCCSc1nc(NCCCN(C)C)nc(N(CCCCCCCCCCCC)CCCCCCCCCCCC)n1 [D6S16^2N12],1.0
6,CCCCCCCCCCCCCCCCCCSc1nc(NCCCN(C)C)nc(N(CCCCCCCCCCCC)CCCCCCCCCCCC)n1 [D6S18^2N12],0.1
7,CCCCCCCCCCCCN(CCCCCCCCCCCC)c1nc(NCCN(CC)CC)nc(SCCCCCC)n1 [D7S6^2N12],0.2
8,CCCCCCCCCCCCN(CCCCCCCCCCCC)c1nc(NCCN(CC)CC)nc(SCCCCCCC)n1 [D7S7^2N12],1.2
9,CCCCCCCCCCCCN(CCCCCCCCCCCC)c1nc(NCCN(CC)CC)nc(SCCCCCCCC)n1 [D7S8^2N12],1.3
10,CCCCCCCCCCCCN(CCCCCCCCCCCC)c1nc(NCCN(CC)CC)nc(SCCCCCCCCC)n1 [D7S9^2N12],0.2
11,CCCCCCCCCCCCN(CCCCCCCCCCCC)c1nc(NCCN(CC)CC)nc(SCCCCCCCCCC)n1 [D7S10^2N12],0.0
12,CCCCCCCCCCCCN(CCCCCCCCCCCC)c1nc(NCCN(CC)CC)nc(SCCCCCCCCCCC)n1 [D7S11^2N12],0.7
13,CCCCCCCCCCCCSc1nc(NCCN(CC)CC)nc(N(CCCCCCCCCCCC)CCCCCCCCCCCC)n1 [D7S12^2N12],1.9
14,CCCCCCCCCCCCCCSc1nc(NCCN(CC)CC)nc(N(CCCCCCCCCCCC)CCCCCCCCCCCC)n1 [D7S14^2N12],0.1
15,CCCCCCCCCCCCCCCSc1nc(NCCN(CC)CC)nc(N(CCCCCCCCCCCC)CCCCCCCCCCCC)n1 [D7S15^2N12],1.8
16,CCCCCCCCCCCCCCCCSc1nc(NCCN(CC)CC)nc(N(CCCCCCCCCCCC)CCCCCCCCCCCC)n1 [D7S16^2N12],0.8
17,CCCCCCCCCCCCCCCCCCSc1nc(NCCN(CC)CC)nc(N(CCCCCCCCCCCC)CCCCCCCCCCCC)n1 [D7S18^2N12],0.0
18,CCCCCCCCCCCCN(CCCCCCCCCCCC)c1nc(NCCCN2CCOCC2)nc(SCCCCCC)n1 [D8S6^2N12],0.0
19,CCCCCCCCCCCCN(CCCCCCCCCCCC)c1nc(NCCCN2CCOCC2)nc(SCCCCCCC)n1 [D8S7^2N12],0.6
20,CCCCCCCCCCCCN(CCCCCCCCCCCC)c1nc(NCCCN2CCOCC2)nc(SCCCCCCCC)n1 [D8S8^2N12],0.1
21,CCCCCCCCCCCCN(CCCCCCCCCCCC)c1nc(NCCCN2CCOCC2)nc(SCCCCCCCCC)n1 [D8S9^2N12],0.3

row,Structure (SMILES),Absolute mRNA transfection efficiency in HEK293 cells [%]
1,CCCCCCCCCCCCN(CCCCCCCCCCCC)c1nc(NCCCN2CCOCC2)nc(SCCCCCCCCCC)n1 [D8S10^2N12],0.0
2,CCCCCCCCCCCCN(CCCCCCCCCCCC)c1nc(NCCCN2CCOCC2)nc(SCCCCCCCCCCC)n1 [D8S11^2N12],0.4
3,CCCCCCCCCCCCSc1nc(NCCCN2CCOCC2)nc(N(CCCCCCCCCCCC)CCCCCCCCCCCC)n1 [D8S12^2N12],3.4
4,CCCCCCCCCCCCCCSc1nc(NCCCN2CCOCC2)nc(N(CCCCCCCCCCCC)CCCCCCCCCCCC)n1 [D8S14^2N12],0.1
5,CCCCCCCCCCCCCCCSc1nc(NCCCN2CCOCC2)nc(N(CCCCCCCCCCCC)CCCCCCCCCCCC)n1 [D8S15^2N12],2.9
6,CCCCCCCCCCCCCCCCSc1nc(NCCCN2CCOCC2)nc(N(CCCCCCCCCCCC)CCCCCCCCCCCC)n1 [D8S16^2N12],0.0
7,CCCCCCCCCCCCCCCCCCSc1nc(NCCCN2CCOCC2)nc(N(CCCCCCCCCCCC)CCCCCCCCCCCC)n1 [D8S18^2N12],0.0
8,CCCCCCCCCCCCN(CCCCCCCCCCCC)c1nc(NCCCN2CCN(C)CC2)nc(SCCCCCC)n1 [D9S6^2N12],0.1
9,CCCCCCCCCCCCN(CCCCCCCCCCCC)c1nc(NCCCN2CCN(C)CC2)nc(SCCCCCCC)n1 [D9S7^2N12],1.0
10,CCCCCCCCCCCCN(CCCCCCCCCCCC)c1nc(NCCCN2CCN(C)CC2)nc(SCCCCCCCC)n1 [D9S8^2N12],0.6
11,CCCCCCCCCCCCN(CCCCCCCCCCCC)c1nc(NCCCN2CCN(C)CC2)nc(SCCCCCCCCC)n1 [D9S9^2N12],0.3
12,CCCCCCCCCCCCN(CCCCCCCCCCCC)c1nc(NCCCN2CCN(C)CC2)nc(SCCCCCCCCCC)n1 [D9S10^2N12],0.3
13,CCCCCCCCCCCCN(CCCCCCCCCCCC)c1nc(NCCCN2CCN(C)CC2)nc(SCCCCCCCCCCC)n1 [D9S11^2N12],0.0
14,CCCCCCCCCCCCSc1nc(NCCCN2CCN(C)CC2)nc(N(CCCCCCCCCCCC)CCCCCCCCCCCC)n1 [D9S12^2N12],0.8
15,CCCCCCCCCCCCCCSc1nc(NCCCN2CCN(C)CC2)nc(N(CCCCCCCCCCCC)CCCCCCCCCCCC)n1 [D9S14^2N12],0.1
16,CCCCCCCCCCCCCCCSc1nc(NCCCN2CCN(C)CC2)nc(N(CCCCCCCCCCCC)CCCCCCCCCCCC)n1 [D9S15^2N12],0.4
17,CCCCCCCCCCCCCCCCSc1nc(NCCCN2CCN(C)CC2)nc(N(CCCCCCCCCCCC)CCCCCCCCCCCC)n1 [D9S16^2N12],2.7
18,CCCCCCCCCCCCCCCCCCSc1nc(NCCCN2CCN(C)CC2)nc(N(CCCCCCCCCCCC)CCCCCCCCCCCC)n1 [D9S18^2N12],0.0
19,CCCCCCCCCCCCN(CCCCCCCCCCCC)c1nc(NCC2CCN(C)CC2)nc(SCCCCCC)n1 [D10S6^2N12],0.1
